In ChEMBL document CHEMBL3877300, “Design, synthesis, docking studies and biological evaluation of novel dihydro-1,3,5-triazines as human DHFR inhibitors” (Eur J Med Chem, 2017):

How the values were obtained:
[1] = test system: Mus musculus; assay: Toxicity in BALB/c nude mouse xenografted with human A549 cells assessed as body weight at 2 mg/kg, ip administered 14 times in 22 days measured on day 4 post dose (reference value: 24.84 +/- 1.22 g); assay type: organism-based; conditions: in vivo, 528 h
[2] = Antiproliferative activity against human HL60 cells after 72 hrs by MTT assay; assay type: functional, cell-based; conditions: HL-60, 72 h
[3] = Antitumor activity against human A549 cells xenografted in BALB/c nude mouse assessed as tumor volume at 2 mg/kg, ip administered 14 times in 22 days measured on day 15 post dose (reference value: 502.27 +/- 69.26 mm3); assay type: functional
[4] = Antitumor activity against human A549 cells xenografted in BALB/c nude mouse assessed as tumor growth inhibition at 2 mg/kg, ip administered 14 times in 22 days measured on day 18 post dose relative to control; assay type: functional; conditions: read-out: TGI
[5] = Antitumor activity against human A549 cells xenografted in BALB/c nude mouse assessed as tumor growth inhibition at 2 mg/kg, ip administered 14 times in 22 days measured on day 15 post dose relative to control; assay type: functional; conditions: read-out: TGI
[6] = Antitumor activity against human A549 cells xenografted in BALB/c nude mouse assessed as tumor volume at 2 mg/kg, ip administered 14 times in 22 days measured on day 8 post dose (reference value: 288.71 +/- 54.75 mm3); assay type: functional
[7] = cells; conditions: Homo sapiens, HCT-116, 72 h
Description: Antiproliferative activity against human HCT116 cells after 72 hrs by MTT assay

[8] = test system: Mus musculus; assay: Toxicity in BALB/c nude mouse xenografted with human A549 cells assessed as body weight at 2 mg/kg, ip administered 14 times in 22 days measured on day 15 post dose (reference value: 25.41 +/- 1.04 g); assay type: organism-based; conditions: in vivo, 528 h
[9] = Antitumor activity against human A549 cells xenografted in BALB/c nude mouse assessed as tumor volume at 2 mg/kg, ip administered 14 times in 22 days measured on day 4 post dose (reference value: 207.73 +/- 56.48 mm3); assay type: functional
[10] = Antitumor activity against human A549 cells xenografted in BALB/c nude mouse assessed as tumor growth inhibition at 2 mg/kg, ip administered 14 times in 22 days measured on day 8 post dose relative to control; assay type: functional; conditions: read-out: TGI
[11] = cells; conditions: Homo sapiens, A549, 72 h
Description: Antiproliferative activity against human A549 cells after 72 hrs by MTT assay

[12] = Antitumor activity against human A549 cells xenografted in BALB/c nude mouse assessed as tumor growth inhibition at 2 mg/kg, ip administered 14 times in 22 days measured on day 11 post dose relative to control; assay type: functional; conditions: read-out: TGI
[13] = Antitumor activity against human A549 cells xenografted in BALB/c nude mouse assessed as tumor volume at 2 mg/kg, ip administered 14 times in 22 days measured on day 22 post dose (reference value: 912.28 +/- 140.04 mm3); assay type: functional
[14] = Antitumor activity against human A549 cells xenografted in BALB/c nude mouse assessed as tumor volume at 2 mg/kg, ip administered 14 times in 22 days measured on day 11 post dose (reference value: 373.93 +/- 59.98 mm3); assay type: functional
[15] = Antitumor activity against human A549 cells xenografted in BALB/c nude mouse assessed as tumor volume at 2 mg/kg, ip administered 14 times in 22 days measured on day 1 post dose (reference value: 117.71 +/- 7.29 mm3); assay type: functional
[16] = Antiproliferative activity against human HepG2 cells after 72 hrs by MTT assay; assay type: functional, cell-based; conditions: HepG2, 72 h
[17] = test system: Mus musculus; assay: Toxicity in BALB/c nude mouse xenografted with human A549 cells assessed as body weight at 2 mg/kg, ip administered 14 times in 22 days measured on day 1 post dose (reference value: 24.73 +/- 1.33 g); assay type: organism-based; conditions: in vivo, 528 h
[18] = test system: Mus musculus; assay: Toxicity in BALB/c nude mouse xenografted with human A549 cells assessed as body weight at 2 mg/kg, ip administered 14 times in 22 days measured on day 18 post dose (reference value: 25.66 +/- 1.16 g); assay type: organism-based; conditions: in vivo, 528 h
[19] = Antitumor activity against human A549 cells xenografted in BALB/c nude mouse assessed as tumor growth inhibition at 2 mg/kg, ip administered 14 times in 22 days measured on day 4 post dose relative to control; assay type: functional; conditions: read-out: TGI
[20] = Antiproliferative activity against human MDA-MB-231 cells after 72 hrs by MTT assay; assay type: functional, cell-based; conditions: MDA-MB-231, 72 h, read-out: IC50
[21] = Antitumor activity against human A549 cells xenografted in BALB/c nude mouse assessed as tumor growth inhibition at 2 mg/kg, ip administered 14 times in 22 days measured on day 22 post dose relative to control; assay type: functional; conditions: 528 h, read-out: TGI
[22] = test system: Mus musculus; assay: Toxicity in BALB/c nude mouse xenografted with human A549 cells assessed as body weight at 2 mg/kg, ip administered 14 times in 22 days measured on day 22 post dose (reference value: 25.59 +/- 1.16 g); assay type: organism-based; conditions: in vivo, 528 h
[23] = test system: Mus musculus; assay: Toxicity in BALB/c nude mouse xenografted with human A549 cells assessed as body weight at 2 mg/kg, ip administered 14 times in 22 days measured on day 8 post dose (reference value: 25.19 +/- 1.38 g); assay type: organism-based; conditions: in vivo, 528 h
[24] = test system: Mus musculus; assay: Toxicity in BALB/c nude mouse xenografted with human A549 cells assessed as body weight at 2 mg/kg, ip administered 14 times in 22 days measured on day 11 post dose (reference value: 24.99 +/- 0.97 g); assay type: organism-based; conditions: in vivo, 528 h

For `CN(Cc1cnc2nc(N)nc(N)c2n1)c1ccc(C(=O)N[C@@H](CCC(=O)O)C(=O)O)cc1` [METHOTREXATE], the Activity [1] was 25.47 g, the IC50 [2] was 1090 nM and the Activity [3] was 271.71 mm3. The inhibition in vivo at 2 mg/kg [4] was 50.6%, the inhibition in vivo at 2 mg/kg [5] was 45% and the Activity [6] was 189.83 mm3. It also gave an IC50 [7] of 750 nM, an Activity [8] of 21.85 g and an Activity [9] of 153.09 mm3. The inhibition in vivo at 2 mg/kg [10] was 32.7%, the IC50 [11] was 250 nM and the inhibition in vivo at 2 mg/kg [12] was 29.2%. It also gave an Activity [13] of 440.75 mm3, an Activity [14] of 223.6 mm3 and an Activity [15] of 115.14 mm3. It also gave an IC50 [16] of 410 nM, an Activity [17] of 25.28 g and an Activity [18] of 21.62 g. For the same molecule, the inhibition in vivo at 2 mg/kg [19] was 24.6%, the IC50 [20] was 9490 nM and the inhibition in vivo at 2 mg/kg [21] was 50.8%. The Activity [22] was 21.4 g, the Activity [23] was 24.88 g and the Activity [24] was 23.98 g.
